# According to PMC11844072, “Novel 5,6-dichlorobenzimidazole derivatives as dual BRAFWT and BRAFV600E inhibitors: design, synthesis, anti-cancer activity and molecular dynamics simulations” (BMC Chemistry, 2025):
# Experiments:
# BRAFV600E = BRAFV600E (Homo sapiens, UniProt P15056, V600E); parameters: purchased BPS Biosciences 48688; conditions: cited from earlier work
# FGFR-1 = FGFR-1 (Homo sapiens, UniProt P11362); parameters: purchased; conditions: cited from earlier work
# BRAFWT = molecular target: T1, BRAFWT (Homo sapiens, UniProt P15056); conditions: cited from earlier work
# T1 construct: purchased BPS Biosciences 78316
# T1 sequence (P15056 whole entry): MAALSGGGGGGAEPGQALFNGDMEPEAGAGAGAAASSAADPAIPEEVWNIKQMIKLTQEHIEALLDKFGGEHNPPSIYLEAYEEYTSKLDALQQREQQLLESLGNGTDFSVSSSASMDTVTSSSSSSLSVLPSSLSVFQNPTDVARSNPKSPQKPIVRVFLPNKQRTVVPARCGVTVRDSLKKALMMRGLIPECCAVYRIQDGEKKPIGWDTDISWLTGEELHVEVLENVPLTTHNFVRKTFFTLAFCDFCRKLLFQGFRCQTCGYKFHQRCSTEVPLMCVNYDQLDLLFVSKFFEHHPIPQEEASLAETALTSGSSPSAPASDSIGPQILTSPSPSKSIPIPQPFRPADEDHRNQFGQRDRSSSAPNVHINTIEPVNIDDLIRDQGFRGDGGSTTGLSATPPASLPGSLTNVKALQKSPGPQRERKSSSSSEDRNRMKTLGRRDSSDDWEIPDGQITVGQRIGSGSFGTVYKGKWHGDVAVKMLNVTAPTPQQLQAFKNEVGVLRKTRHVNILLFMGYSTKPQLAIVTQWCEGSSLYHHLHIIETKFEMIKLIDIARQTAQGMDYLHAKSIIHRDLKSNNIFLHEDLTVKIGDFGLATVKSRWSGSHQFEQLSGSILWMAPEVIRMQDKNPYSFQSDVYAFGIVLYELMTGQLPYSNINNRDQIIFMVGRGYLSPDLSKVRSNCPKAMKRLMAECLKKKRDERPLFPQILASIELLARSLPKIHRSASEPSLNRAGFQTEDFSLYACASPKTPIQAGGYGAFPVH
# VEGFR-2 = VEGFR-2 (Homo sapiens, UniProt P35968); parameters: purchased; conditions: cited from earlier work
# Sequence of VEGFR-2 (P35968 20-1356): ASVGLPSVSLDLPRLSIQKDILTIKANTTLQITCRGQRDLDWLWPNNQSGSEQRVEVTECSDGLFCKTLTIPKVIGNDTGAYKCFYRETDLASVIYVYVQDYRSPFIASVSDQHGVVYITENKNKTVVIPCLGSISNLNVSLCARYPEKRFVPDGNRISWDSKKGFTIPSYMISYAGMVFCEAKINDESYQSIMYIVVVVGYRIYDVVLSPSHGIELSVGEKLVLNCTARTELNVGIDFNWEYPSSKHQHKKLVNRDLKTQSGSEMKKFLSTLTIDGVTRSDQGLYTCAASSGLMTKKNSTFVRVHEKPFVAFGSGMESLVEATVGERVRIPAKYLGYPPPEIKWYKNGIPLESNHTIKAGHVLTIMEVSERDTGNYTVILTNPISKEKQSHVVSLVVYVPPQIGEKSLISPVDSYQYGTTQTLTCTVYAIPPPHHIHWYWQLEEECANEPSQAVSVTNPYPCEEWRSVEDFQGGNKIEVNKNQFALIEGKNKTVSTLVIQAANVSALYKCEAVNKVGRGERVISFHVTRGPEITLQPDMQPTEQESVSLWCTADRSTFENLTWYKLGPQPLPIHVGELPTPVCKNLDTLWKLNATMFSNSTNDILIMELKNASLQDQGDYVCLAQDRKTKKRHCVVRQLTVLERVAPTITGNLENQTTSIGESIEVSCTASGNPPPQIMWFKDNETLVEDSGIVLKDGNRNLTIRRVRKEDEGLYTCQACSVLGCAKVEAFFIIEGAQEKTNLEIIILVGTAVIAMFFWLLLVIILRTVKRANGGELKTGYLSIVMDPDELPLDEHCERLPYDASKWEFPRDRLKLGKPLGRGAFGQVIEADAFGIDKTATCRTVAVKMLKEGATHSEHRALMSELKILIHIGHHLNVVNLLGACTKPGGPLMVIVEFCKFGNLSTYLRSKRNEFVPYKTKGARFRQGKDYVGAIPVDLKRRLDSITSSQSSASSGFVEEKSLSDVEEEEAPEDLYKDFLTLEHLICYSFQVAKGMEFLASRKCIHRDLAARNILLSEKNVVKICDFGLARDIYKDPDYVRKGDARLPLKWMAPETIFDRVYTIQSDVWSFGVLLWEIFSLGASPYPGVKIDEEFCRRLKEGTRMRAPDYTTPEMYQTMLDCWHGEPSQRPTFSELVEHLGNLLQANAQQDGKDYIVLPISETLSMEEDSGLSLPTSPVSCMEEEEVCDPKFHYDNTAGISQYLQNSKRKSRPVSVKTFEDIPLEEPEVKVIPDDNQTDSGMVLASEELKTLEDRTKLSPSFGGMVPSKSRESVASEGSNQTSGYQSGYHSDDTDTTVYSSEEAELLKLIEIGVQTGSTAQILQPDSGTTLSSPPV
# PDGFR-β = tested on: PDGFR-β; parameters: method as in PMID 35636123; conditions: cited from earlier work
# c-KIT = tested on: c-KIT; parameters: method as in PMID 35636123; conditions: cited from earlier work
# FLT-3 = tested on: FLT-3; parameters: method as in PMID 35636123; conditions: cited from earlier work
# HSF cell line = test: Cytotoxicity on HSF normal cell line (SRB assay); format: cell-based; conditions: HSF normal human skin fibroblast; mean of three ± SD
# Protocol: The dichlorobenzimidazole derivative 10h was tested in Nawah scientific—Cairo—Egypt for its cytotoxic activity on HSF cell line as stated in the Additional file A [53, 54].
# 6. Analysis of 10h on HSF normal cell line
# Human Skin Fibroblast (HSF) was obtained from Nawah Scientific Inc., (Mokatam, Cairo, Egypt). Cells were maintained in DMEM media supplemented with […] of streptomycin, 100 units/mL of penicillin and 10% of heat-inactivated fetal bovine serum in humidified, 5% (v/v) CO2atmosphere at 37 °C. Cell viability was assessed by SRB assay. Aliquots of 100 μL cell suspension (5x10^3 cells) were in 96-well plates and incubated in complete media for 24 h. Cells were treated with another aliquot of 100 μL media containing drugs at various concentrations.
# After drug exposure, cells were fixed by replacing media with 150 μL of 10% TCA and incubated at 4 °C for 1 h. The TCA solution was removed, and the cells were washed 5 times with distilled water. Aliquots of 70 μL SRB solution (0.4% w/v) were added and incubated in a dark place at room temperature for 10 min. Plates were washed 3 times with 1% acetic acid and allowed to air-dry overnight. Then, 150 μL of TRIS (10 mM) was added to dissolve protein-bound SRB stain; the absorbance was measured at 540 nm using an Infinite F50 microplate reader (TECAN, Switzerland).
# 6.2. Dose response curve of 10h on HSF normal cell line
# Figure 66. […]
# HepG2 cell line = tested on: HepG2 cell line; parameters: method as in PMID 28505536, PMID 32053964; conditions: antiproliferative activity; cited from earlier work
# Sequence of BRAFV600E (P15056 whole entry V600E): as the sequence (P15056 whole entry) above, with V600E counted along it
# Sequence of FGFR-1 (P11362 22-822): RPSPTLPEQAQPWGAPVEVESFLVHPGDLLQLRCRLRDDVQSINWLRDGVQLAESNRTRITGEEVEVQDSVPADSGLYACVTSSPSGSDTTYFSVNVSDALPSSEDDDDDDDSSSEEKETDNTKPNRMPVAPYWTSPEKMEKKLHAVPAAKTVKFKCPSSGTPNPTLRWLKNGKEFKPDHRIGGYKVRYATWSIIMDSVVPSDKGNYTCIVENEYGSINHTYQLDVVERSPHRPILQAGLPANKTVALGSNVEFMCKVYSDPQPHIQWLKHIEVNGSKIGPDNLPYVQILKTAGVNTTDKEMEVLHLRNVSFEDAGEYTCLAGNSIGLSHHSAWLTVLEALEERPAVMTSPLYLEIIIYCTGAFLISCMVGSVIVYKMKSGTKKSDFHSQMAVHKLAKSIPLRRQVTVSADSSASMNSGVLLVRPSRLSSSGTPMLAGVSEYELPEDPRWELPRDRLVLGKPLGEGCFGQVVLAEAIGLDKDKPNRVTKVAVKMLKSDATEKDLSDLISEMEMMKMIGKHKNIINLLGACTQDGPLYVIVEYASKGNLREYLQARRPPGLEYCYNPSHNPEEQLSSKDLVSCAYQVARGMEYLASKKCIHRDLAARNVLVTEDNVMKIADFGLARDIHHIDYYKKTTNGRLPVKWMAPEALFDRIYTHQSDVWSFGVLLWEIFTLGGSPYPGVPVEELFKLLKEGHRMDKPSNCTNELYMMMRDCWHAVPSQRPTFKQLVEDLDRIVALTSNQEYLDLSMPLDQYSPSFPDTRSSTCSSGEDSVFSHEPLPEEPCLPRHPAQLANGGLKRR
structure (smiles),measurement,setting,value
O=C1Nc2ccc(Br)cc2/C1=N\NC(=O)c1ccc2[nH]c(-c3ccccc3)nc2c1 [IV],IC50,BRAFV600E,1520 nM
same,IC50,FGFR-1,1650 nM
same,IC50,BRAFWT,20 nM
same,IC50,VEGFR-2,180 nM
Cc1ccc(-n2c(SCC(=O)Nc3ccc(-c4nc5ccccc5[nH]4)cc3)nc3ccccc3c2=O)cc1 [III],IC50,PDGFR-β,30 nM
same,IC50,c-KIT,120 nM
same,IC50,BRAFV600E,2470 nM
same,IC50,FLT-3,130 nM
same,IC50,BRAFWT,6740 nM
"CNC(=O)c1cc(Oc2ccc(NC(=O)Nc3ccc(Cl)c(C(F)(F)F)c3)cc2)ccn1 [Sorafenib, reference compound]",IC50,HSF cell line,2250 ± 140 nM
CC(C)c1nc2ccccc2n1CC(=O)N/N=C/c1cccc(OCc2ccccc2)c1 [V],IC50,HepG2 cell line,1980 nM
